Results: US6358885B1, “Substituted phenylheterocyclic herbicides” (Mississippi State University, priority 1992, dated 2002)

Experiments:
arrowhead = assay: Test D paddy water application plant response rating 0 to 100; format: in vivo, Sagittaria spp.; settings: 0 to 100 scale, approx. 21 days
Source text: (§1) Plastic pots were partially filled with silt loam soil. The soil was then saturated with water. […] After planting, water levels were raised to 3 cm above the soil surface and maintained at this level throughout the test. Chemical treatments were formulated in a non-phytotoxic solvent and applied directly to the paddy water. Treated plants and controls were maintained in a greenhouse for approximately 21 days, after which all species were compared to controls and visually evaluated. […] A dash (-) response means no test result.

waterchestnut = assay: as above; format: in vivo, Eleocharis spp.; settings: 0 to 100 scale, approx. 21 days
Source text: as §1

blackgrass = assay: Test F preemergence/postemergence greenhouse plant response rating 0 to 100; format: in vivo, Alopecurus myosuroides; settings: POSTEMERGENCE, 0 to 100 scale; for Blackgrass (1) plant response rating: stage (1) two to three leaves; for Blackgrass (2) plant response rating: stage (2) approximately four leaves or initial tillering
Source text: (§2) Compounds evaluated in this test were formulated in a non-phytoxic solvent and applied to the soil surface before plant seedlings emerged (preemergence application) and to plants that were in the one-to-four leaf stage (postemergence application). A sandy loam soil was used for the preemergence test while a mixture of sandy loam soil and greenhouse potting mix in a 60:40 ratio was used for the postemergence test. Test compounds were applied within approximately one day after planting seeds for the preemergence test. Plantings of these crops and weed species were adjusted to produce plants of appropriate size for the postemergence test. All plant species were grown using normal greenhouse practices. Crop and weed species include winter barley (Hordeum vulgare cv. ‘Igri’), blackgrass (Alopecurus myosuroides), chickweed (Stellaria media), downy brome (Bromus tectorum), field violet (Viola arvensis), galium (Galium aparine), green foxtail (Setaria viridis), kochia (Kochia scoparia), lambsquarters (Chenopodium album), speedwell (Veronica persica), rape (Brassica napus), ryegrass (Lolium multiflorum), sugar beet (Beta vulgaris cv. ‘USl’), sunflower (Helianthus annuus cv. ‘Russian Giant’), spring wheat (Triticum aestivum cv. ‘ERA’), winter wheat (Triticum aestivum cv. ‘Talent’), wild buckwheat (Polygonum convolvulus), wild mustard (Sinapis arvensis), wild oat (Avena fatua), and wild radish (Raphanus raphanistrum). Blackgrass, galium and wild oat were treated at two growth stages. […] Treated plants and untreated controls were maintained in a greenhouse for approximately 21 to 28 days, after which all treated plants were compared to untreated controls and visually evaluated. […] A dash response (-) means no test result.

sunflower = assay: as above; format: in vivo, Helianthus annuus cv. ‘Russian Giant’; settings: POSTEMERGENCE, 0 to 100 scale
Source text: as §2

Japonica rice [1] = assay: Test D paddy water application plant response rating 0 to 100; format: in vivo, Oryza sativa; settings: 0 to 100 scale, approx. 21 days
Source text: as §1

barnyardgrass [2] = assay: as above; format: in vivo, Echinochloa crus-galli; settings: 0 to 100 scale, approx. 21 days
Source text: as §1

umbrella sedge = assay: as above; format: in vivo, Cyperus difformis; settings: 0 to 100 scale, approx. 21 days
Source text: as §1

wild radish = assay: Test F preemergence/postemergence greenhouse plant response rating 0 to 100; format: in vivo, Raphanus raphanistrum; settings: POSTEMERGENCE, 0 to 100 scale
Source text: as §2

Japonica rice [3] = assay: Test E paddy water application plant response rating 0 to 100; format: in vivo, oryza sativa; settings: Flood, 0 to 100 scale, approx. 21 days
Source text: (§3) Plastic pots were partially filled with silt loam soil. […] At testing, the water level for all plantings was raised to 2 cm above the soil surface. Chemical treatments were formulated in a non-phytotoxic solvent and applied directly to the paddy water. Treated plants and controls were maintained in a greenhouse for approximately 21 days, after which all species were compared to controls and visually evaluated. […] A dash (-) response means no test result.

duck salad = assay: Test D paddy water application plant response rating 0 to 100; format: in vivo, Heteranthera limosa; settings: 0 to 100 scale, approx. 21 days
Source text: as §1

sugar beet = assay: Test F preemergence/postemergence greenhouse plant response rating 0 to 100; format: in vivo, Beta vulgaris cv. ‘USl’; settings: POSTEMERGENCE, 0 to 100 scale
Source text: as §2

kochia = assay: as above; format: in vivo, Kochia scoparia; settings: POSTEMERGENCE, 0 to 100 scale
Source text: as §2

wild mustard = assay: as above; format: in vivo, Sinapis arvensis; settings: POSTEMERGENCE, 0 to 100 scale
Source text: as §2

barnyardgrass [4] = assay: Test E paddy water application plant response rating 0 to 100; format: in vivo, Echinochloa crus-galli; settings: Flood, 0 to 100 scale, approx. 21 days
Source text: as §3

Fc1cc(Cl)c(OCCCl)cc1-c1nn2c(c1Cl)CCCC2 [Compound 49]
Arrowhead plant response rating (arrowhead; Rate 4 g/ha): 0
Arrowhead plant response rating (arrowhead; Rate 8 g/ha): 0
Arrowhead plant response rating (arrowhead; Rate 16 g/ha): 0
Arrowhead plant response rating (arrowhead; Rate 64 g/ha): 0
Waterchestnut plant response rating (waterchestnut; Rate 4 g/ha): 0
Waterchestnut plant response rating (waterchestnut; Rate 8 g/ha): 0
Waterchestnut plant response rating (waterchestnut; Rate 16 g/ha): 0
Waterchestnut plant response rating (waterchestnut; Rate 32 g/ha): 10
Waterchestnut plant response rating (waterchestnut; Rate 64 g/ha): 20
Blackgrass (1) plant response rating (blackgrass; Rate 2 g/ha): 0
Blackgrass (2) plant response rating (blackgrass; Rate 2 g/ha): 0
Blackgrass (1) plant response rating (blackgrass; Rate 4 g/ha): 0
Blackgrass (2) plant response rating (blackgrass; Rate 4 g/ha): 0
Blackgrass (1) plant response rating (blackgrass; Rate 8 g/ha): 0
Blackgrass (2) plant response rating (blackgrass; Rate 8 g/ha): 0
Blackgrass (1) plant response rating (blackgrass; Rate 16 g/ha): 0
Blackgrass (2) plant response rating (blackgrass; Rate 16 g/ha): 0
Blackgrass (1) plant response rating (blackgrass; Rate 32 g/ha): 0
Blackgrass (2) plant response rating (blackgrass; Rate 32 g/ha): 10
Sunflower plant response rating (sunflower; Rate 2 g/ha): 0
Sunflower plant response rating (sunflower; Rate 4 g/ha): 0
Sunflower plant response rating (sunflower; Rate 8 g/ha): 0
Sunflower plant response rating (sunflower; Rate 16 g/ha): 0
Sunflower plant response rating (sunflower; Rate 32 g/ha): 0
Japonica rice plant response rating (Japonica rice [1]; Rate 4 g/ha): 10
Japonica rice plant response rating (Japonica rice [1]; Rate 8 g/ha): 10
Japonica rice plant response rating (Japonica rice [1]; Rate 16 g/ha): 10
Japonica rice plant response rating (Japonica rice [1]; Rate 32 g/ha): 15
Japonica rice plant response rating (Japonica rice [1]; Rate 64 g/ha): 20
Barnyardgrass 2 plant response rating (barnyardgrass [2]; Rate 4 g/ha): 0
Barnyardgrass 2 plant response rating (barnyardgrass [2]; Rate 8 g/ha): 20
Barnyardgrass 2 plant response rating (barnyardgrass [2]; Rate 16 g/ha): 30
Barnyardgrass 2 plant response rating (barnyardgrass [2]; Rate 32 g/ha): 70
Barnyardgrass 2 plant response rating (barnyardgrass [2]; Rate 64 g/ha): 100
Umbrella sedge plant response rating (umbrella sedge; Rate 4 g/ha): 0
Umbrella sedge plant response rating (umbrella sedge; Rate 8 g/ha): 0
Umbrella sedge plant response rating (umbrella sedge; Rate 16 g/ha): 0
Umbrella sedge plant response rating (umbrella sedge; Rate 32 g/ha): 0
Umbrella sedge plant response rating (umbrella sedge; Rate 64 g/ha): 50
Wild radish plant response rating (wild radish; Rate 2 g/ha): 0
Wild radish plant response rating (wild radish; Rate 4 g/ha): 0
Wild radish plant response rating (wild radish; Rate 8 g/ha): 10
Wild radish plant response rating (wild radish; Rate 16 g/ha): 100
Japonica 1 plant response rating (Japonica rice [3]; Rate 8 g/ha): 0
Japonica 2 plant response rating (Japonica rice [3]; Rate 8 g/ha): 0
Japonica 1 plant response rating (Japonica rice [3]; Rate 16 g/ha): 0
Japonica 2 plant response rating (Japonica rice [3]; Rate 16 g/ha): 20
Japonica 1 plant response rating (Japonica rice [3]; Rate 32 g/ha): 0
Japonica 2 plant response rating (Japonica rice [3]; Rate 32 g/ha): 30
Japonica 1 plant response rating (Japonica rice [3]; Rate 64 g/ha): 25
Japonica 2 plant response rating (Japonica rice [3]; Rate 64 g/ha): 30
Duck salad plant response rating (duck salad; Rate 4 g/ha): 0
Duck salad plant response rating (duck salad; Rate 8 g/ha): 0
Duck salad plant response rating (duck salad; Rate 16 g/ha): 0
Duck salad plant response rating (duck salad; Rate 32 g/ha): 0
Duck salad plant response rating (duck salad; Rate 64 g/ha): 10
Sugar beet plant response rating (sugar beet; Rate 2 g/ha): 70
Sugar beet plant response rating (sugar beet; Rate 4 g/ha): 100
Sugar beet plant response rating (sugar beet; Rate 8 g/ha): 100
Sugar beet plant response rating (sugar beet; Rate 32 g/ha): 100
Kochia plant response rating (kochia; Rate 2 g/ha): 20
Kochia plant response rating (kochia; Rate 4 g/ha): 60
Kochia plant response rating (kochia; Rate 8 g/ha): 80
Kochia plant response rating (kochia; Rate 16 g/ha): 100
Kochia plant response rating (kochia; Rate 32 g/ha): 100
Wild mustard plant response rating (wild mustard; Rate 2 g/ha): 90
Wild mustard plant response rating (wild mustard; Rate 4 g/ha): 100
Wild mustard plant response rating (wild mustard; Rate 8 g/ha): 100
Wild mustard plant response rating (wild mustard; Rate 32 g/ha): 100
Barnyardgrass 2 plant response rating (barnyardgrass [4]; Rate 8 g/ha): 25
Barnyardgrass 3 plant response rating (barnyardgrass [4]; Rate 8 g/ha): 35
Barnyardgrass 2 plant response rating (barnyardgrass [4]; Rate 16 g/ha): 45
Barnyardgrass 3 plant response rating (barnyardgrass [4]; Rate 16 g/ha): 45
Barnyardgrass 2 plant response rating (barnyardgrass [4]; Rate 32 g/ha): 90
Barnyardgrass 3 plant response rating (barnyardgrass [4]; Rate 32 g/ha): 55
Barnyardgrass 2 plant response rating (barnyardgrass [4]; Rate 64 g/ha): 100
Barnyardgrass 3 plant response rating (barnyardgrass [4]; Rate 64 g/ha): 70

C#CC(C)N1C(=O)COc2cc(F)c(-c3nn4c(c3Cl)CCCC4)cc21 (centres unmarked) [Compound 50]
Blackgrass (1) plant response rating (blackgrass; Rate 16 g/ha): 0
Blackgrass (2) plant response rating (blackgrass; Rate 16 g/ha): 0
Blackgrass (1) plant response rating (blackgrass; Rate 32 g/ha): 0
Blackgrass (2) plant response rating (blackgrass; Rate 32 g/ha): 0
Blackgrass (1) plant response rating (blackgrass; Rate 64 g/ha): 0
Blackgrass (2) plant response rating (blackgrass; Rate 64 g/ha): 0
Blackgrass (1) plant response rating (blackgrass; Rate 125 g/ha): 40
Blackgrass (2) plant response rating (blackgrass; Rate 125 g/ha): 20
Sunflower plant response rating (sunflower; Rate 16 g/ha): 40
Sunflower plant response rating (sunflower; Rate 32 g/ha): 60
Sunflower plant response rating (sunflower; Rate 64 g/ha): 60
Sunflower plant response rating (sunflower; Rate 125 g/ha): 100
Wild radish plant response rating (wild radish; Rate 16 g/ha): 50
Wild radish plant response rating (wild radish; Rate 32 g/ha): 50
Wild radish plant response rating (wild radish; Rate 64 g/ha): 55
Wild radish plant response rating (wild radish; Rate 125 g/ha): 70
Japonica 1 plant response rating (Japonica rice [3]; Rate 8 g/ha): 0
Japonica 2 plant response rating (Japonica rice [3]; Rate 8 g/ha): 15
Japonica 1 plant response rating (Japonica rice [3]; Rate 16 g/ha): 20
Japonica 2 plant response rating (Japonica rice [3]; Rate 16 g/ha): 20
Japonica 1 plant response rating (Japonica rice [3]; Rate 32 g/ha): 40
Japonica 2 plant response rating (Japonica rice [3]; Rate 32 g/ha): 30
Japonica 1 plant response rating (Japonica rice [3]; Rate 64 g/ha): 50
Japonica 2 plant response rating (Japonica rice [3]; Rate 64 g/ha): 35
Japonica 1 plant response rating (Japonica rice [3]; Rate 125 g/ha): 75
Japonica 2 plant response rating (Japonica rice [3]; Rate 125 g/ha): 45
Sugar beet plant response rating (sugar beet; Rate 16 g/ha): 100
Sugar beet plant response rating (sugar beet; Rate 32 g/ha): 100
Sugar beet plant response rating (sugar beet; Rate 64 g/ha): 100
Sugar beet plant response rating (sugar beet; Rate 125 g/ha): 100
Kochia plant response rating (kochia; Rate 16 g/ha): 100
Kochia plant response rating (kochia; Rate 32 g/ha): 100
Kochia plant response rating (kochia; Rate 64 g/ha): 100
Kochia plant response rating (kochia; Rate 125 g/ha): 100
Wild mustard plant response rating (wild mustard; Rate 16 g/ha): 70
Wild mustard plant response rating (wild mustard; Rate 32 g/ha): 70
Wild mustard plant response rating (wild mustard; Rate 64 g/ha): 100
Wild mustard plant response rating (wild mustard; Rate 125 g/ha): 100
Barnyardgrass 2 plant response rating (barnyardgrass [4]; Rate 8 g/ha): 15
Barnyardgrass 3 plant response rating (barnyardgrass [4]; Rate 8 g/ha): 10
Barnyardgrass 2 plant response rating (barnyardgrass [4]; Rate 16 g/ha): 15
Barnyardgrass 3 plant response rating (barnyardgrass [4]; Rate 16 g/ha): 15
Barnyardgrass 2 plant response rating (barnyardgrass [4]; Rate 32 g/ha): 25
Barnyardgrass 3 plant response rating (barnyardgrass [4]; Rate 32 g/ha): 20
Barnyardgrass 2 plant response rating (barnyardgrass [4]; Rate 64 g/ha): 35
Barnyardgrass 3 plant response rating (barnyardgrass [4]; Rate 64 g/ha): 35
Barnyardgrass 2 plant response rating (barnyardgrass [4]; Rate 125 g/ha): 55
Barnyardgrass 3 plant response rating (barnyardgrass [4]; Rate 125 g/ha): 60
